According to patent publication US20240344241A1, “PROTEINACEOUS MOLECULES AND USES THEREFOR” (THE UNIVERSITY OF QUEENSLAND, priority 2021, published 2024):
Bridge positions count the residues as written; N and C are the ends. Peptide text beside a SMILES is read from it.

Experiments:
[1] = biological target: T1, Human β-FXIIa (Homo sapiens, UniProt P00748); test: FXIIa competitive inhibition assay, fluorescent substrate Boc-QGR-MCA; type: biochemical
T1 construct: Human β-FXIIa was obtained from Molecular Innovations, together with human FXa, human FXIa, human α-thrombin, and human plasma kallikrein; purchased Molecular Innovations; host or cells: purified from human plasma
T1 sequence (P00748 373-615 limits assumed, other chains not shown): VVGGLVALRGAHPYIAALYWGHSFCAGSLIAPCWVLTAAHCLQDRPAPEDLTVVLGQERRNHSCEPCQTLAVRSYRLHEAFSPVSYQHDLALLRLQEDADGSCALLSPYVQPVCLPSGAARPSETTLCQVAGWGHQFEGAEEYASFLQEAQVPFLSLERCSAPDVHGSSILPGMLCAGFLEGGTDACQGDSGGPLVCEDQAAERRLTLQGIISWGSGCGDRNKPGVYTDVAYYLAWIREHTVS
Text: Cyclic [I7F]MCoFx1 (also referred to as cyclic MCoFx6) was synthesized using solid phase peptide synthesis ([[…]] [SEQ ID NO: 97]). For this inhibitor, Tyr33 was mutated back to serine as per the original mRNA display screen (FIG. 1). Cyclic MCoFx6 was screened using a competitive inhibition assay, with the substrate being changed from a colorimetric substrate (Ac-QRFR-pNA in the data of Tables 7 and 10) to a fluorescent substrate (Boc-QGR-MCA) to allow the assay to be run with a lower concentration of enzyme. The assay was performed as described for Examples 2 and 3, except that the FXIIa concentration was 0.5 nM and the substrate concentration was 50 μM (KM=187 μM).
The new variants were screened using competitive inhibition assays, with the substrate being changed from a colorimetric substrate (Ac-QRFR-pNA in the data of Tables 7 and 10) to a fluorescent substrate (Boc-QGR-MCA) to allow the assay to be run with a lower concentration of enzyme. Assays were performed as described for Examples 2 and 3, except that the FXIIa concentration was 0.5 nM and the substrate concentration was 50 μM (KM=187 μM). […] The effect of amino acid substitutions within loop 2 (Arg12, Arg13), loop 5 (Ala25, Arg27) or loop 6 (Asp34) on the activity of cyclic MCoFx7 against FXIIa was determined (refer to Table 14). […] Additionally, mutating Arg to Glu (reversing the side chain charge) only led to two-fold weaker activity. The adjacent residue Arg13 could also be mutated to Lys with no change in activity. Within loop 5, mutating Ala25 to Lys produced a slight gain in activity, whereas the Ala to Pro mutation led to a slight decrease in activity. Both mutations at Arg27 led to losses in activity in the order of two-fold (His) or 3.2-fold (Gly).
(§1) The activity of acyclic and cyclic MCoFx1-5 and analogues thereof was assessed in competitive inhibition assays, as previously described in Swedberg et al. (2016) J Med Chem, 59: 7287-7292. Human β-FXIIa was obtained from Molecular Innovations, together with human FXa, human FXIa, human α-thrombin, and human plasma kallikrein. Human cationic trypsin and human plasmin were obtained from Sigma-Aldrich, and recombinant human matriptase was sourced from R&D Systems. Recombinant human urokinase (uPA) and recombinant human tissue plasminogen activator (tPA) were expressed in Expi293 cells, as previously described in Li et al. (2019) Chembiochem, 20: 46-50. FXIIa inhibition assays were performed in clear, low-binding 96-well plates using 250 μL (final volume) of assay buffer (0.1 M Tris-HCl pH 8.0, 0.1 M NaCl, 10 mM CaCl2 and 0.005% Triton X-100). Inhibitors were serially diluted and incubated with 10 nM FXIIa at room temperature to reach equilibrium. After adding 100 μM Ac-QRFR-pNA substrate (KM=162 μM), enzymatic activity was measured by monitoring release of the pNA moiety using a TECAN infinite M1000 Pro plate reader (A=405 nm, reading interval, 10 s; assay time course, 7 min). Assays were conducted in three times in duplicate. Substrate kinetic constants (Michaelis-Menten) and inhibition constants (Morrison K) were determined by non-linear regression using Prism 7 (GraphPad). Selectivity assays with off-target proteases were performed in a similar way, except that different concentrations of enzyme and substrate were used, as indicated in Table 16. For assays using a fluorescent substrate (peptide-4-methylcoumaryl-7-amide, MCA), black low-binding 96-well plates were used and activity was measured using a TECAN infinite M1000 pro plate reader (λex 360 nm, λem 460 nm, reading interval, 30 s; assay time course, 5-30 min).

[2] = biological target: T2, bovine trypsin (Bos taurus, UniProt P00760); test: Surface plasmon resonance binding to trypsin; conditions: for affinity for trypsin (in words): SPR
T2 sequence (P00760 24-246): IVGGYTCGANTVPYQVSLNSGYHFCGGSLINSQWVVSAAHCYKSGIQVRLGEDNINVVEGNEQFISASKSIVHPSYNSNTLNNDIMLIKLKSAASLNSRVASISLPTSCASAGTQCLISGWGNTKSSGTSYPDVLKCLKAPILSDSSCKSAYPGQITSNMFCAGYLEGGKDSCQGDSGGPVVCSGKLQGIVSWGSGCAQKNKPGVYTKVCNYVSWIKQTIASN

[3] = biological target: T1, Human β-FXIIa; test: FXIIa competitive inhibition assay, colorimetric substrate Ac-QRFR-pNA; type: biochemical
Protocol: as §1

| Structure (SMILES) | Ki [1] [nM] | affinity for trypsin (in words) [2] | other results |
| --- | --- | --- | --- |
| CC[C@H](C)[C@@H]1NC(=O)CNC(=O)CNC(=O)[C@H](CC(=O)O)NC(=O)[C@H](CO)NC(=O)CNC(=O)[C@H](CO)NC(=O)CNC(=O)[C@@H]2CSSC[C@@H]3NC(=O)[C@H](CC(=O)O)NC(=O)[C@H](CO)NC(=O)[C@H](CC(=O)O)NC(=O)[C@H](CCCNC(=N)N)NC(=O)[C@H](CCCNC(=N)N)NC(=O)[C@@H]4CSSC[C@H](NC(=O)[C@H]([C@@H](C)CC)NC(=O)[C@H](CSSC[C@H](NC1=O)C(=O)N1CCC[C@H]1C(=O)N[C@@H](CCCNC(=N)N)C(=O)N[C@@H]([C@@H](C)CC)C(=O)NCC(=O)N[C@@H](CCCNC(=N)N)C(=O)N[C@@H](CC(C)C)C(=O)N4)NC(=O)[C@H](C)NC(=O)CNC(=O)[C@@H]1CCCN1C3=O)C(=O)N[C@@H](CCCNC(=N)N)C(=O)N[C@@H](CCCCN)C(=O)N[C@@H]([C@@H](C)O)C(=O)N[C@@H](CCCNC(=N)N)C(=O)N[C@@H](Cc1ccccc1)C(=O)N2 [Cyclic [A25K]MCoFx7] (cyclo(ACICRKTRFCGSGSDGGICPRIGRLCRRDSDCPG); disulfide 2-19, 4-26, 10-32) | 0.046 ± 0.005 |  |  |
| CC[C@H](C)[C@@H]1NC(=O)CNC(=O)CNC(=O)[C@@H]2CCCN2C(=O)[C@H](CO)NC(=O)CNC(=O)[C@H](CO)NC(=O)CNC(=O)[C@@H]2CSSC[C@@H]3NC(=O)[C@H](CC(=O)O)NC(=O)[C@H](CO)NC(=O)[C@H](CC(=O)O)NC(=O)[C@H](CCCNC(=N)N)NC(=O)[C@H](CCCNC(=N)N)NC(=O)[C@@H]4CSSC[C@H](NC(=O)[C@H]([C@@H](C)CC)NC(=O)[C@H](CSSC[C@H](NC1=O)C(=O)N1CCC[C@H]1C(=O)N[C@@H](CCCNC(=N)N)C(=O)N[C@@H]([C@@H](C)CC)C(=O)NCC(=O)N[C@@H](CCCNC(=N)N)C(=O)N[C@@H](CC(C)C)C(=O)N4)NC(=O)[C@H](C)NC(=O)CNC(=O)[C@@H]1CCCN1C3=O)C(=O)N[C@@H](CCCNC(=N)N)C(=O)N[C@@H](C)C(=O)N[C@@H]([C@@H](C)O)C(=O)N[C@@H](CCCNC(=N)N)C(=O)N[C@@H](Cc1ccccc1)C(=O)N2 [Cyclic [D34P]MCoFx7] (cyclo(ACICRATRFCGSGSPGGICPRIGRLCRRDSDCPG); disulfide 2-19, 4-26, 10-32) | 0.091 |  |  |
| CC[C@H](C)[C@@H]1NC(=O)CNC(=O)CNC(=O)[C@H](CC(=O)O)NC(=O)[C@H](CO)NC(=O)CNC(=O)[C@H](CO)NC(=O)CNC(=O)[C@@H]2CSSC[C@@H]3NC(=O)[C@H](CC(=O)O)NC(=O)[C@H](CO)NC(=O)[C@H](CC(=O)O)NC(=O)[C@H](CCCNC(=N)N)NC(=O)[C@H](CCC(=O)O)NC(=O)[C@@H]4CSSC[C@H](NC(=O)[C@H]([C@@H](C)CC)NC(=O)[C@H](CSSC[C@H](NC1=O)C(=O)N1CCC[C@H]1C(=O)N[C@@H](CCCNC(=N)N)C(=O)N[C@@H]([C@@H](C)CC)C(=O)NCC(=O)N[C@@H](CCCNC(=N)N)C(=O)N[C@@H](CC(C)C)C(=O)N4)NC(=O)[C@H](C)NC(=O)CNC(=O)[C@@H]1CCCN1C3=O)C(=O)N[C@@H](CCCNC(=N)N)C(=O)N[C@@H](C)C(=O)N[C@@H]([C@@H](C)O)C(=O)N[C@@H](CCCNC(=N)N)C(=O)N[C@@H](Cc1ccccc1)C(=O)N2 [Cyclic [R12E]MCoFx7] (cyclo(ACICRATRFCGSGSDGGICPRIGRLCERDSDCPG); disulfide 2-19, 4-26, 10-32) | 0.13 ± 0.007 |  |  |
| CC[C@H](C)[C@@H]1NC(=O)[C@@H]2CSSC[C@H](NC(=O)[C@H](CCCNC(=N)N)NC(=O)CNC(=O)CNC(=O)[C@@H](N)CC(=O)O)C(=O)N[C@@H](CS)C(=O)NCC(=O)NCC(=O)N[C@@H](Cc3ccc(O)cc3)C(=O)N[C@@H](CC(C)C)C(=O)N[C@@H](C(C)C)C(=O)N[C@H]3CSSC[C@H](NC1=O)C(=O)N[C@@H](C(C)C)C(=O)N[C@@H](Cc1ccccc1)C(=O)N[C@@H](CCCCN)C(=O)N[C@@H](CCCCN)C(=O)N[C@@H](Cc1c[nH]cn1)C(=O)N[C@H](C(=O)NCC(=O)N[C@@H](CO)C(=O)NCC(=O)N[C@@H](CO)C(=O)O)CSSC[C@H](NC(=O)[C@H](CC(=O)O)NC(=O)[C@H](CO)NC(=O)[C@H](CC(=O)O)NC(=O)[C@H](CCCNC(=N)N)NC(=O)[C@H](CCCNC(=N)N)NC3=O)C(=O)N1CCC[C@H]1C(=O)NCC(=O)N[C@@H](C)C(=O)N2 [MCoFx5 acyclic] (H-DGGRCCGGYLVCRRDSDCPGACICVFKKHCGSGS-OH; disulfide 5-22, 12-24, 18-30) |  | Neither aMCoFx5 nor cMCoFx5 showed detectable affinity for trypsin | KD (nM) Trypsin Acyclic ([2]; Table 8, acyclic form): No binding |
| CC[C@H](C)[C@@H]1NC(=O)[C@@H]2CSSC[C@@H]3NC(=O)[C@H](CCCNC(=N)N)NC(=O)CNC(=O)CNC(=O)[C@H](CC(=O)O)NC(=O)[C@H](CO)NC(=O)CNC(=O)[C@H](CO)NC(=O)CNC(=O)[C@@H]4CSSC[C@H](NC(=O)[C@H](CC(=O)O)NC(=O)[C@H](CO)NC(=O)[C@H](CC(=O)O)NC(=O)[C@H](CCCNC(=N)N)NC(=O)[C@H](CCCNC(=N)N)NC(=O)[C@H](CSSC[C@H](NC1=O)C(=O)N[C@@H](C(C)C)C(=O)N[C@@H](Cc1ccccc1)C(=O)N[C@@H](CCCCN)C(=O)N[C@@H](CCCCN)C(=O)N[C@@H](Cc1c[nH]cn1)C(=O)N4)NC(=O)[C@H](C(C)C)NC(=O)[C@H](CC(C)C)NC(=O)[C@H](Cc1ccc(O)cc1)NC(=O)CNC(=O)CNC(=O)[C@H](CS)NC3=O)C(=O)N1CCC[C@H]1C(=O)NCC(=O)N[C@@H](C)C(=O)N2 [MCoFx5 cyclic] (cyclo(DGGRCCGGYLVCRRDSDCPGACICVFKKHCGSGS); disulfide 5-22, 12-24, 18-30) |  | Neither aMCoFx5 nor cMCoFx5 showed detectable affinity for trypsin | KD (nM) Trypsin Cyclic ([2]; Table 8, cyclic form): No binding |
| CC[C@H](C)[C@@H]1NC(=O)[C@H](CCCNC(=N)N)NC(=O)[C@@H]2CCCN2C(=O)[C@@H](NC(=O)[C@@H](NC(=O)[C@@H](N)CCCNC(=N)N)[C@@H](C)CC)CSSC[C@@H]2NC(=O)[C@H](C)NC(=O)CNC(=O)[C@@H]3CCCN3C(=O)[C@@H]3CSSC[C@@H](C(=O)NCC(=O)O)NC(=O)[C@H](Cc4ccccc4)NC(=O)[C@H](CCCNC(=N)N)NC(=O)[C@H]([C@@H](C)O)NC(=O)[C@H](C)NC(=O)[C@H](CCCNC(=N)N)NC(=O)[C@H](CSSC[C@H](NC(=O)[C@H](CC(C)C)NC(=O)[C@H](CCCNC(=N)N)NC(=O)CNC1=O)C(=O)N[C@@H](CCCNC(=N)N)C(=O)N[C@@H](CCCNC(=N)N)C(=O)N[C@@H](CC(=O)O)C(=O)N[C@@H](CO)C(=O)N[C@@H](CC(=O)O)C(=O)N3)NC(=O)[C@H]([C@@H](C)CC)NC2=O [SEQ ID NO: 84] (H-RICPRIGRLCRRDSDCPGACICRATRFCG-OH; disulfide 3-20, 10-22, 16-28) |  |  | Ki [3]: 1.4 nM |
